What was measured:
[1] = target: T1, Dmel\Orco + Dmel\Or35a (Drosophila melanogaster, UniProt Q9VNB5); assay: Agonist activation of Dmel\Orco + Dmel\Or35a in Xenopus oocytes, two-electrode voltage clamp; assay type: cell-based; conditions: for Response amplitude as percentage of response to 100 µM OLC3, Dmel\Orco + Dmel\Or35a: 100 µM compound, mean ± SEM, n=3-8; for Emax at 100 µM: read-out: Response amplitude as percentage of response to 100 µM OLC3, Dmel\Orco + Dmel\Or35a
T1 construct: expressed in transfected cells; host or cells: Xenopus laevis oocytes (cRNA injection, pGEMHE)
T1 sequence (Q9VNB5 1-486): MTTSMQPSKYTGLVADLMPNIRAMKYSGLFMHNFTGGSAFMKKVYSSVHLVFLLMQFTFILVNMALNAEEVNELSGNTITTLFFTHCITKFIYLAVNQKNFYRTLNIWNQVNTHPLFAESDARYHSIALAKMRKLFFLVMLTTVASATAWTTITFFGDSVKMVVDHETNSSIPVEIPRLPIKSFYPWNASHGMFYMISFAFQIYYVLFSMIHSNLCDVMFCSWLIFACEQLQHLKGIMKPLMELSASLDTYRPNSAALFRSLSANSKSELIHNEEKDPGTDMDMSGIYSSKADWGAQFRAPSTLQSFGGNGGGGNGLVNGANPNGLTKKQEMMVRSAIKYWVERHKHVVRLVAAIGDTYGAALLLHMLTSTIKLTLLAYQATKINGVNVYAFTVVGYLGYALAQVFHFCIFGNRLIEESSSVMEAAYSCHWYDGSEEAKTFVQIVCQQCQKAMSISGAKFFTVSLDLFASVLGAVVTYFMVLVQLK
T1 sequence (Q9V3Q2 1-409 partner): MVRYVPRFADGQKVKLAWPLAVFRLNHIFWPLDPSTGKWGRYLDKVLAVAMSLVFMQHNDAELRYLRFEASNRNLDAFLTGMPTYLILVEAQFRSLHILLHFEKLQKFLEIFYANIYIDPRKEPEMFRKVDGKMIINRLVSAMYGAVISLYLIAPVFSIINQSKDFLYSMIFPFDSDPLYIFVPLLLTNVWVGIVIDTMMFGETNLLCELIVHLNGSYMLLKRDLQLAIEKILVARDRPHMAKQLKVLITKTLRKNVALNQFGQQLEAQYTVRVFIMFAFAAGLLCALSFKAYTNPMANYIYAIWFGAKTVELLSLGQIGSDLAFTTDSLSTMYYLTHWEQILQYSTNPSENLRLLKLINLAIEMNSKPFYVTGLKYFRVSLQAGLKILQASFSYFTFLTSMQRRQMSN
Description: (§1) Oocytes were surgically removed from mature Xenopus laevis frogs. Follicle cells were removed by treatment with Collagenase B (Boehringer Mannhem) for 2 hours at room temperature. Capped cRNA encoding each DmOR subunit was generated using mMessage mMachine kits (Ambion). For heteromeric ORs, 25 ng of cRNA encoding each OR subunit was injected into Stage V-VI Xenopus oocytes. For expression of Orco alone, 50 ng of cRNA was injected. Oocytes were incubated at 18°C in Barth’s saline (in mM: 88 NaCl, 1 KCl, 2.4 NaHCO3, 0.3 CaNO3, 0.41 CaCl2, 0.82 MgSO4, 15 HEPES, pH 7.6, and 150 µg/ml ceftazidime) for 2–5 days prior to electrophysiological recording.
(§2) Odorant and Orco ligand induced currents were recorded under two-electrode voltage clamp in Xenopus laevis oocytes expressing ORs, using an automated parallel electrophysiology system (OpusExpress 6000A; Molecular Devices). Oocytes were perfused with ND96 (in mM: 96 NaCl, 2 KCl, 1 CaCl2, 1 MgCl2, 5 HEPES, pH 7.5). Odorant stock solutions (0.5 or 1 M) and Orco ligand stock solutions (100 mM) were prepared in DMSO and diluted in ND96. Unless otherwise noted, applications were for 60 sec at a flow rate of 1.0 ml/min, with extensive washing in ND96 (9 or 20 min at 4.6 ml/min) between applications. Micropipettes were filled with 3 M KCl and had resistances of 0.2−2.0 MΩ. The holding potential was −70 mV. Current responses, filtered (4-pole, Bessel, low pass) at 20 Hz (−3 db) and sampled at 100 Hz, were captured and stored using OpusXpress 1.1 software (Molecular Devices).
(§3) Initial analysis of electrophysiological data was done using Clampfit 9.1 software (Molecular Devices). Curve fitting and statistical analyses were done using Prism 5 (Graphpad). Concentration-response data were fit to the equation: I = Imax/(1+(EC50/X)^n) where I represents the current response at a given concentration of odorant, X; Imax is the maximal response; EC50 is the concentration of agonist yielding a half maximal response; n is the apparent Hill coefficient. Concentration-inhibition data were fit to the equation: I = Imax/(1+(X/IC50)^n) where I represents the current response at a given concentration of inhibitor, X; Imax is the maximal response in the absence of inhibitor; IC50 is the concentration of inhibitor present that still allows a half maximal response from odorant; n is the apparent Hill coefficient. Statistical significance was assessed using a two-tailed unpaired t test, an F test, or a one-way analysis of variance followed by the Bonferroni’s post-test, as appropriate.

[2] = tested on: Cqui\Orco; assay: Agonist activation of homomeric Cqui\Orco in Xenopus oocytes, two-electrode voltage clamp; assay type: cell-based, Culex quinquefasciatus; conditions: 100 µM compound; mean ± SEM, n=3-8
[3] = target: T2, Dmel\Orco (Drosophila melanogaster, UniProt Q9VNB5); assay: Agonist activation of homomeric Dmel\Orco in Xenopus oocytes, two-electrode voltage clamp; assay type: cell-based; conditions: for Response amplitude as percentage of response to 100 µM OLC3, Dmel\Orco: 100 µM compound, mean ± SEM, n=3-8; for Emax at 100 µM: read-out: Response amplitude as percentage of response to 100 µM OLC3, Dmel\Orco
T2 construct: expressed in transfected cells; host or cells: Xenopus laevis oocytes (cRNA injection, pGEMHE)
T2 sequence (Q9VNB5 1-486): T1 sequence (Q9VNB5 1-486)
Description: as §1, §2, §3

[4] = target: Cqui\Orco + Cqui\Or10 (Culex quinquefasciatus, UniProt D5LMR7+Q309I4); assay: Activation of Cqui\Orco + Cqui\Or10 in Xenopus oocytes, two-electrode voltage clamp; assay type: cell-based; conditions: 100 µM compound, mean ± SEM, n=3-8; for Emax at 100 µM: read-out: Response amplitude as percentage of response to 100 µM OLC3, Cqui\Orco + Cqui\Or10
Description: as §1, §2, §3

[5] = tested on: Onub\Orco + Onub\Or1; assay: Agonist activation of Onub\Orco + Onub\Or1 in Xenopus oocytes, two-electrode voltage clamp; assay type: cell-based, Ostrinia nubilalis; conditions: 100 µM compound; mean ± SEM, n=3-8
[6] = target: T2, Dmel\Orco; assay: Inhibition of OLC12 activation of Dmel\Orco in Xenopus oocytes; assay type: cell-based; conditions: for IC50: activated by 30 µM OLC12 (EC39)
Description: as §1, §2
(§4) In inhibition assays, oocytes were exposed to 60 sec applications of OLC12 with 9 min washes between applications (Fig. 3 and 4) or 60 sec applications of odorant with 20 min washes between applications (Fig. 5). Oocytes were then exposed to a 90 sec application of antagonist candidate, immediately followed by a 60 sec co-application of antagonist candidate and OLC12 or odorant. Oocytes were then exposed to a final 60 sec application of OLC12 or odorant. The current response in the presence of antagonist candidate was compared to the preceding response(s) to OLC12 (or odorant) alone.
as §3

[7] = target: T1, Dmel\Orco + Dmel\Or35a; assay: Inhibition of OLC12 activation of Dmel\Orco + Dmel\Or35a in Xenopus oocytes; assay type: cell-based; conditions: activated by 10 µM OLC12 (EC25); read-out: IC50, Dmel\Orco + Dmel\Or35a (activated by 10 µM OLC12)
Description: as §1, §2, §4, §3

[8] = target: T1, Dmel\Orco + Dmel\Or35a; assay: Inhibition of odorant (hexanol) activation of Dmel\Orco + Dmel\Or35a in Xenopus oocytes; assay type: cell-based; conditions: 3 µM hexanol; OLC2 100 µM, OLC15 50 µM, OLC20 200 µM
Description: as §1, §2
In inhibition assays, oocytes were exposed to 60 sec applications of OLC12 with 9 min washes between applications (Fig. 3 and 4) or 60 sec applications of odorant with 20 min washes between applications (Fig. 5). […]
Initial analysis of electrophysiological data was done using Clampfit 9.1 software (Molecular Devices). […] Statistical significance was assessed using a two-tailed unpaired t test, an F test, or a one-way analysis of variance followed by the Bonferroni’s post-test, as appropriate.

Chain of Cqui\Orco + Cqui\Or10 (D5LMR7 entry or part of it): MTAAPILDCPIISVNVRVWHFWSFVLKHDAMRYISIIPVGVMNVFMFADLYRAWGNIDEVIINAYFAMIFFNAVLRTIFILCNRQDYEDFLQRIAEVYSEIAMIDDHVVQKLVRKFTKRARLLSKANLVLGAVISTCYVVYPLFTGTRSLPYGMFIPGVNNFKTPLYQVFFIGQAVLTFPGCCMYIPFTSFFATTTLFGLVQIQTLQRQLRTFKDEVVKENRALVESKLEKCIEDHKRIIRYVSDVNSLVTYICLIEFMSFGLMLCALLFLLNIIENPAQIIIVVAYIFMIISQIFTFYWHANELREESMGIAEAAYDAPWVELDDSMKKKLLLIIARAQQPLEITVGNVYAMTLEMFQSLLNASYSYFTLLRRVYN
Chain of Cqui\Orco + Cqui\Or10 (Q309I4 entry or part of it): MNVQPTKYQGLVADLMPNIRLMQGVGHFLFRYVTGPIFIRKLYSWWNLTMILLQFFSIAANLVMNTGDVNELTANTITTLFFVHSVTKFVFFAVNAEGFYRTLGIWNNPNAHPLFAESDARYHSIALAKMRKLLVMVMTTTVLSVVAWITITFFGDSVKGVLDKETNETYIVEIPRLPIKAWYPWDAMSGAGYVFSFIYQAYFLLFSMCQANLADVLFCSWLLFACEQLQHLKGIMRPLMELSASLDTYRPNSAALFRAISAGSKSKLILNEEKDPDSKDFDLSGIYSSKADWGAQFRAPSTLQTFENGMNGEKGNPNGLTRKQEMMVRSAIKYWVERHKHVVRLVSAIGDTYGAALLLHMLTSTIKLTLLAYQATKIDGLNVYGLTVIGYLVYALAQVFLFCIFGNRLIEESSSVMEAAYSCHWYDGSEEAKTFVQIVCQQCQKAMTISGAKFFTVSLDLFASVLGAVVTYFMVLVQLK

| SMILES | Response amplitude as percentage of response to 100 µM OLC3, Dmel\Orco + Dmel\Or35a [1] | Response amplitude as percentage of response to 100 µM OLC3, Cqui\Orco [2] | Response amplitude as percentage of response to 100 µM OLC3, Dmel\Orco [3] | Response amplitude as percentage of response to 100 µM OLC3, Cqui\Orco + Cqui\Or10 [4] | Response amplitude as percentage of response to 100 µM OLC3, Onub\Orco + Onub\Or1 [5] | Inhibition of activation of Dmel\Orco by 30 µM OLC12 on co-application ([6]; 100 µM compound co-applied with 30 µM OLC12) | Emax at 100 µM [1] | IC50 [7] | Emax at 100 µM [3] | Emax at 100 µM [4] | IC50 [6] | Inhibition of the hexanol response of Dmel\Orco+Dmel\Or35a [8] |
| --- | --- | --- | --- | --- | --- | --- | --- | --- | --- | --- | --- | --- |
| CCc1ccc(NC(=O)CSc2nnc(-c3cnccn3)n2CC)cc1 [OLC4] | 4 ± 1% | 0% | 0% | 0% | 4 ± 2% | – | – | – | – | – | – | – |
| CCn1c(SCC(=O)Nc2ccc(C)cc2)nnc1-c1cccnc1 [OLC5] | 4 ± 1% | 0% | 0% | 16 ± 2% | 4 ± 2% | – | – | – | – | – | – | – |
| CCn1c(SCC(=O)Nc2cccc(C)c2)nnc1-c1cccnc1 [OLC6] | 0% | 4 ± 2% | 0% | 0% | 0% | – | – | – | – | – | – | – |
| CCn1c(SCC(=O)Nc2ccc(OC)cc2)nnc1-c1cccnc1 [OLC7] | 4 ± 1% | 4 ± 2% | 0% | 4 ± 1% | 0% | – | – | – | – | – | – | – |
| CCc1ccccc1NC(=O)CSc1nnc(-c2cccnc2)n1CC [OLC8] | 0% | 5 ± 3% | 0% | 0% | 0% | fails to block | – | – | – | – | – | – |
| CCCCc1ccc(NC(=O)CSc2nnc(-c3cccnc3)n2CC)cc1 [OLC9] | – | 0% | – | – | 3 ± 1% | – | 5 ± 2% | 40 ± 9 µM | 0% | 0% | 69 ± 7 µM | – |
| CCn1c(SCC(=O)Nc2ccc(Br)cc2)nnc1-c1cccnc1 [OLC10] | 25 ± 7% | 0% | 0% | 27 ± 16% | – | – | – | – | – | – | – | – |
| CCn1c(SCC(=O)Nc2ccc(Cl)cc2)nnc1-c1cccnc1 [OLC11] | 13 ± 2% | 0% | 0% | 13 ± 3% | – | – | – | – | – | – | – | – |
| CCn1c(SCC(=O)Nc2ccc(C)c(C)c2)nnc1-c1ccncc1 [OLC13] | 0% | 0% | 0% | 0% | – | – | – | – | – | – | – | – |
| CCn1c(SCC(=O)Nc2ccc(N(C)C)cc2)nnc1-c1ccncc1 [OLC14] | – | 0% | – | – | – | – | 2 ± 1% | 81 ± 23 µM | 0% | 12 ± 2% | 25 ± 4 µM | – |
| Sc1nnc(-c2cccnc2)[nH]1 [OLC16] | 0% | 3 ± 2% | 0% | 0% | – | – | – | – | – | – | – | – |
| C=CCn1c(S)nnc1-c1cccnc1 [OLC17] | 0% | 3 ± 2% | 0% | 0% | – | – | – | – | – | – | – | – |
| Cn1cnnc1-c1ccncc1 [OLC18] | 0% | 0% | 0% | 0% | – | – | – | – | – | – | – | – |
| CCc1ccc(NC(C)=O)cc1 [OLC19] | 0% | 3 ± 2% | 0% | 0% | – | – | – | – | – | – | – | – |
| CCc1ccc(NC(=O)c2cccs2)cc1 [OLC20] | – | 0% | – | – | – | – | 0% | 55 ± 15 µM | 0% | 11 ± 4% | 57 ± 19 µM | substantial inhibition |
| CC(C)c1ccc(NC(=O)CSc2nnnn2C)cc1 [OLC21] | 0% | 0% | 0% | 0% | – | – | – | – | – | – | – | – |
| CCCCc1ccc(NC(=O)c2cccs2)cc1 [OLC22] | – | 0% | – | – | – | – | 0% | 26 ± 4 µM | 0% | 0% | 52 ± 18 µM | – |
| Cc1nnc(-c2ccccn2)[nH]1 [OLC23] | 0% | 0% | 0% | 8 ± 3% | – | – | – | – | – | – | – | – |

— article PMC3348135, “Identification of New Agonists and Antagonists of the Insect Odorant Receptor Co-Receptor Subunit” (PLoS ONE, 2012)
